Assay results as given in EP3243509A1, “OROBUCCAL ABSORPTION COMPOSITION FOR NEURO-PROTECTION” (priority 2016, dated 2017).

How the values were obtained:
multiple sclerosis (MS) = settings: part intravenously, part per os; Hartstein and Ulett 1957; cited from earlier work
[1] = tested on: rat model with Alzheimer disease; settings: Salkovic-Petrisic et al. 2014; cited from earlier work
[2] = tested on: open-angle acute primary glaucoma; assay: Clinical Case Report 2; assay type: in vivo, patient; settings: ophthalmic treatment for IOP, after 4 months of treatment

SMILES	symptoms of the disease (multiple sclerosis (MS))	effect of the oral treatment (learning capacity and memory) [1]	field of vision and acuity [2]
O=C[C@H](O)[C@@H](O)[C@@H](O)[C@H](O)CO [D-galactose]	improved the symptoms of the disease	beneficial effect	
CC(C)NCC(O)COc1ccc(CCOCC2CC2)cc1 (stereo not drawn) [beta-toxolol, betaxolol]			not improved
